Experiments:
M4 muscarinic receptor = biological target: T1, M4 muscarinic receptor (Homo sapiens, UniProt P08173); assay: Functional mobilization of intracellular calcium (FLIPR), M4-CHO cells; type: cell-based; conditions: for Emax: 100% efficacy is the maximum response obtained using Carbachol as a control; for M4 Activity: M4-CHO cells, FLIPR calcium mobilization
T1 construct: expressed in transfected cells; host or cells: CHO (M4-CHO)
T1 sequence (P08173 1-479): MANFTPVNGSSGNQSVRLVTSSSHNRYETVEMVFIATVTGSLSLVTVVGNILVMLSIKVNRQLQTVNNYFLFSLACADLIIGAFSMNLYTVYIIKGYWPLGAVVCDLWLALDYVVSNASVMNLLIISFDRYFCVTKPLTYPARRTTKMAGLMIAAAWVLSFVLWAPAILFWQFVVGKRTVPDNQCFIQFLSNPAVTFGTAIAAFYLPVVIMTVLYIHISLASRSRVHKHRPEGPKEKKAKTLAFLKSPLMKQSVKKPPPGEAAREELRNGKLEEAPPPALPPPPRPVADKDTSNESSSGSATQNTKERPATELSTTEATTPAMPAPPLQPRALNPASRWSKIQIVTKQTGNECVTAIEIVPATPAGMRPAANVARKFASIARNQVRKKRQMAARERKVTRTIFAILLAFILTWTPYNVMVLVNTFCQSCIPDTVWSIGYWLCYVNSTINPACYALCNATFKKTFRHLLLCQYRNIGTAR
In short: (§1)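 Calcium flux recorded 60 s (ex 488, em 540 nm) in dye-loaded M1- or M4-CHO cells in pH 7.4 buffer with 1 mM probenecid. Inhibition measured against carbachol EC80 after 15 min compound pre-incubation or co-addition; agonism measured by compound addition alone. Final DMSO 0.5%.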

M1 muscarinic receptor = biological target: T2, M1 muscarinic receptor (Homo sapiens, UniProt P11229); assay: Functional mobilization of intracellular calcium (FLIPR), M1-CHO cells; type: cell-based; conditions: for Emax: 100% efficacy is the maximum response obtained using Carbachol as a control; for M1 Activity: M1-CHO cells, FLIPR calcium mobilization
T2 construct: expressed in transfected cells; host or cells: CHO (M1-CHO)
T2 sequence (P11229 1-460): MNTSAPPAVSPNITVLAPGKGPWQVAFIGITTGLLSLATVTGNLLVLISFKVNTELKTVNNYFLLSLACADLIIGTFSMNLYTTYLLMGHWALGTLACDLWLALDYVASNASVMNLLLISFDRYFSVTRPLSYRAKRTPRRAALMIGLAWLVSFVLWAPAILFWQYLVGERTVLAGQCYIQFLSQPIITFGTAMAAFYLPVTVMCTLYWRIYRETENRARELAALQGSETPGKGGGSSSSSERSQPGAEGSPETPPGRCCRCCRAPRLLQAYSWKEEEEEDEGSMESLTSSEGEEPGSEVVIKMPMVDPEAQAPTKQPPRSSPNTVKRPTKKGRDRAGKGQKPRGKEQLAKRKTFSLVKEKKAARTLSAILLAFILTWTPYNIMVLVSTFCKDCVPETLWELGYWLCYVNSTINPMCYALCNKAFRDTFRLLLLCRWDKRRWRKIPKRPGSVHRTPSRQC
In short: as §1

SMILES | Emax (M4 muscarinic receptor) | M4 Activity (M4 muscarinic receptor) | Emax (M1 muscarinic receptor) | M1 Activity (M1 muscarinic receptor)
CCOC(=O)N1CCC(CN2CCC3(CC2)CN(C(=O)CC)Cc2ccccc23)CC1 [compound 63] | 25 to 100% | +++ (activity was measured to be less than 1.0 μM) | 25 to 100% | +++ (activity was measured to be less than 1.0 μM)
O=C1OC2(CCN(C[C@H]3C[C@H]4C=C[C@H]3C4)CC2)c2ccc(Cl)cc21 [compound 19] | < 25% | ++ (activity was measured to be from 1.0 μM to 5.0 μM) | 25 to 100% | ++ (activity was measured to be from 1.0 μM to 5.0 μM)
CCOC(=O)N1C2CCC1CC(N1CCC3(CC1)CN(C(=O)c1ccno1)Cc1ccccc13)C2 (stereo not shown) [compound 318] | 25 to 100% | +++ (activity was measured to be less than 1.0 μM) | 25 to 100% | +++ (activity was measured to be less than 1.0 μM)
CCOC(=O)N1CCC(CN2CCC3(CC2)CN(C(=O)c2snnc2C)Cc2ccccc23)CC1 [compound 143] | 25 to 100% | +++ (activity was measured to be less than 1.0 μM) | 25 to 100% | +++ (activity was measured to be less than 1.0 μM)
O=C(c1ccccc1)N1CCC(N2CCC3(CC2)c2ccccc2C(=O)N3Cc2ccccc2)CC1 [compound 42] | < 25% | + (activity was measured to be greater than 5.0 μM) | < 25% | + (activity was measured to be greater than 5.0 μM)
CCOC(=O)N1C2CCC1CC(N1CCC3(CC1)CN(C(=O)NC1CCCC1)Cc1ccccc13)C2 (stereo not shown) [compound 321] | 25 to 100% | +++ (activity was measured to be less than 1.0 μM) | 25 to 100% | +++ (activity was measured to be less than 1.0 μM)
CC(=O)N1Cc2ccccc2C2(CCN(C3CC4CCC(C4)C3)CC2)C1 (stereo not shown) [compound 21] | 25 to 100% | + (activity was measured to be greater than 5.0 μM) | 25 to 100% | + (activity was measured to be greater than 5.0 μM)
CCOC(=O)N1C2CCC1CC(N1CCC3(CC1)CN(C(=O)c1ccc(F)cc1)Cc1ccccc13)C2 (stereo not shown) [compound 71] | < 25% | + (activity was measured to be greater than 5.0 μM) | 25 to 100% | +++ (activity was measured to be less than 1.0 μM)
COC(=O)N1CCC(N2CCC3(CC2)CN(C(C)=O)Cc2ccccc23)CC1 [compound 133] | 25 to 100% | +++ (activity was measured to be less than 1.0 μM) | 25 to 100% | +++ (activity was measured to be less than 1.0 μM)
CCCC1CCC(N2CCC3(CC2)CN(C(C)=O)Cc2ccccc23)CC1 (stereo not shown) [compound 326] | 25 to 100% | +++ (activity was measured to be less than 1.0 μM) | 25 to 100% | +++ (activity was measured to be less than 1.0 μM)
CCOC(=O)N1CCC(N2CCC3(CC2)CN(S(=O)(=O)c2c(C)noc2C)Cc2ccccc23)CC1 [compound 25] | 25 to 100% | +++ (activity was measured to be less than 1.0 μM) | 25 to 100% | +++ (activity was measured to be less than 1.0 μM)
CC(=O)N1Cc2ccccc2C2(CCN(Cc3ccc4c(c3)CCO4)CC2)C1 [compound 116] | < 25% | + (activity was measured to be greater than 5.0 μM) | < 25% | + (activity was measured to be greater than 5.0 μM)
CCOC(=O)N1C2CCC1CC(N1CCC3(CC1)CN(S(=O)(=O)c1cccc(Cl)c1)Cc1ccccc13)C2 (stereo not shown) [compound 253] | 25 to 100% | +++ (activity was measured to be less than 1.0 μM) | 25 to 100% | +++ (activity was measured to be less than 1.0 μM)
